Patent US6306899A (priority 1999, dated 2001)
Values after ≈ are worked out from the molar mass of the structure shown. Like-named read-outs stand apart in the source and are kept apart here.

How the values were obtained:
[1] = tested on: HBV; experiment: microbe, parasite or virus in culture; type: cell-based, Hepatitis B virus; settings: for EC50: Hepatitis B virus, 144 h; for inhibition of HBV replication / DNA level: in words
[2] = Solubility: saturated solution in PBS at room temperature; type: physicochemical; settings: aqueous buffer
Text: 3. The symbol "*" denotes the concentration of the saturated solution in
PBS at room temperature.

[3] = tested on: Yellow Fever virus; experiment: microbe, parasite or virus in culture; type: cell-based
[4] = Cytotoxicity, CEM cell growth; type: cell-based; settings: human, cem cells; 3 days; read-out: Cytotoxicity (IC50) CEM cell
Procedure: (§1) To determine the cellular toxicity of the present compounds, the T-lymphoblastoic cell line (CEM) and the HEP-G2 cell line (parent cell line from which 2.2.15 cell line is produced) were used. Cells were subjected to varying concentrations of the drug(s) and cell numbers were determined 3 days post treatment by the method described by Chen, C-H and Cheng, Y-C, J. Biol. Chem., 264, 11934 (1989). Concentrations of the drug which would result in inhibition of cell growth were determined from the plot generated by representing cell numbers corresponding to the individual drug concentrations.

[5] = Cytotoxicity, HepG2 cell growth; type: cell-based; settings: human, hepg2 cells; 3 days; read-out: Cytotoxicity (IC50) HepG2 cell
Procedure: as §1

[6] = tested on: HBsAg; experiment: microbe, parasite or virus in culture; type: cell-based, Hepatitis B virus; settings: for EC50: Hepatitis B virus, 144 h, read-out: Anti-viral activity (ED50) HbsAg; for HbsAg expression inhibition: in words
[7] = background; in words; cited from earlier work
[8] = tested on: HBV; settings: background; in words; cited from earlier work
[9] = tested on: HBsAg in HepA2 cells; experiment: Suppression of HBsAg secretion in HepA2 cells, serum-free, 2 days; type: cell-based; settings: Homo sapiens, HepA2, 48 h, read-out: EC50 HepA2 (50% reduction of HBsAg secretion)
Text: (§2) Biological testing results of Helioxanthin and
(§3) its derivatives for suppression of HBsAg
(§4) in HepA2 and Hep3B cells in serum-free condition for 2 days
The symbol, "*" denotes HepA2, HBV DNA stable transfected HBV dimer DNA.
(§5) The symbol, "**" denotes EC50, the concentration of tested compounds
(§6) which exerted 50% reduction of HBsAg secretion in human hepatoma cells.

[10] = tested on: HBsAg in Hep3B cells; experiment: Suppression of HBsAg secretion in Hep3B cells, serum-free, 2 days; type: cell-based; settings: Homo sapiens, 48 h, read-out: EC50 Hep3B (50% reduction of HBsAg secretion)
Text: as §2, §3, §4, §5, §6

[11] = Yellow fever virus, BHK, 144 h, read-out: Anti-viral activity (ED50) YFV, plaque reduction, BHK cells, 6 days

| Compound | EC50 [1] [µM] | solubility [2] [µM] | EC50 [3, 11] [µM] | CC50 at 72 h [4] [µM] | CC50 at 72 h [5] [µM] | EC50 [6] [µM] | EC50 [9] [µM] | EC50 [10] [µM] | other results |
| --- | --- | --- | --- | --- | --- | --- | --- | --- | --- |
| O=C1OC(=O)c2c1cc1cc3c(cc1c2-c1cc2c(cc1Br)OCO2)OCO3 [ZHU-IX-120-3, 6,7-methylenedioxy-1-(2'-bromo-4',5'-methylenedioxyphenyl)napthalene-2,3-dicarboxylic acid anhydride] | > 10 | 11.8 (≈ 5.21 µg/mL) | > 10 | > 30 | 11 | > 10 | – | – | – |
| Nc1ncnc2c1ncn2[C@@H]1O[C@H](COP(=O)(O)O)[C@@H](O)[C@@H]1O [ara-AMP] | – | – | – | – | – | – | – | – | toxicity [7]: extremely toxic; effect on HBV infection [8]: transiently suppress HBV infection |
| O=C1OCc2cc3cc4c(cc3c(-c3ccc5c(c3)OCO5)c21)OCO4 [Taiwanin C] | – | – | – | – | – | – | 1.25 | 1 | – |
| COc1cc(C2c3cc(O)c(OC)cc3CC3C(=O)OCC32)ccc1O (centres unmarked) [Conidendrin] | – | – | – | – | – | – | > 12.5 | > 12.5 | – |
| COc1cc2c(O)c3c(c(-c4ccc5c(c4)OCO5)c2cc1OC)C(=O)OC3 [Diphylline] | – | – | – | – | – | – | > 12.5 | > 12.5 | – |
| CC(=O)Oc1c2c(c(-c3ccc4c(c3)OCO4)c3cc4c(cc13)OCO4)C(=O)OC2 [Taiwanin E acetate] | – | – | – | – | – | – | > 12.5 | > 12.5 | – |
| Nc1nc2c(ncn2CCC(CO)CO)c(=O)[nH]1 [PCV] | – | – | – | – | – | – | – | – | effect on HBV infection [8]: recurrence of HBV after a period of treatment |
| COc1cc(-c2c3c(cc4cc(OC)c(OC(C)=O)cc24)C(=O)OC3)ccc1OC(C)=O [Diacetate] | – | – | – | – | – | – | > 12.5 | > 12.5 | – |
| O=C1OC(=O)c2c1c(Br)c1cc3c(cc1c2-c1cc2c(cc1Br)OCO2)OCO3 [ZHU-IX-120-2, 1-bromo-6,7-methylenedioxy-4-(2'-bromo-4', 5'-methylenedioxyphenyl)napthalene-2,3-dicarboxylic acid anyhdride] | > 10 | 13.1 (≈ 6.81 µg/mL) | > 10 | > 30 | 6 | > 10 | – | – | – |
| OCc1cc2c(Br)cc3c(c2c(-c2ccc4c(c2)OCO4)c1CO)OCO3 [ZHU-IX-135-1, 2,3-dihydroxymethyl-5-bromo-7,8-methylenedioxy-1-(3', 4'-methylenedioxyphenyl)napthalene] | 3 | 24.8 (≈ 10.7 µg/mL) | 14 | > 30 | 12 | 8.5 | – | – | inhibition of HBV replication / DNA level [1]: inhibit HBV replication; HbsAg expression inhibition [6]: inhibit HBV replication and HbsAg expression |
| O=C(O)c1c(CO)cc2ccc3c(c2c1-c1ccc2c(c1)OCO2)OCO3 [ZHU-IX-153, sodium 7,8-methylenedioxy-1-(3',4'-methylendioxyphenyl)-3-hydroxymethylnapthalene-2-carbonate] | > 10 | 255 | > 10 | – | > 30 | > 10 | – | – | – |
| Cc1c(C=O)cc2ccc3c(c2c1-c1ccc2c(c1)OCO2)OCO3 [ZHU-IX-189, 5,6-methylenedioxy-4-(3',4'-methylendioxyphenyl)-2-methylnapthalene-3-aldehyde] | > 10 | – | > 25 | – | – | > 10 | – | – | – |
| COc1cc(-c2c3c(cc4cc(OC)c(O)cc24)C(=O)OC3)ccc1O [Dehydroconidendrin] | – | – | – | – | – | – | > 12.5 | > 12.5 | – |
| COc1ccc(C2c3cc(OC)c(OC)cc3CC3C(=O)OCC32)cc1OC (centres unmarked) [Conidendrin Methyl Ether] | – | – | – | – | – | – | > 12.5 | > 12.5 | – |
| O=C1OCc2cc3ccc4c(c3c(-c3ccc5c(c3)OCO5)c21)OCO4 [ZHU-IX-139-2, 7,8-methylendioxy-1-(3',4'-methylenedioxyphenyl)-3-hydroxymethylnapthalene-2-carboxylic acid lactone] | > 10 | 21 (≈ 7.31 µg/mL) | 16 | 18 | 12 | 10 | – | – | – |
| OCc1cc2ccc3c(c2c(-c2ccc4c(c2)OCO4)c1CO)OCO3 [ZHU-IX-124-2, 2,3-dihydroxymethyl-5,6-methylenedioxy-4-(3',4'-methylenedioxyphenyl)napthalene] | 10 | 127 (≈ 44.8 µg/mL) | > 10 | > 30 | 16 | 10 | – | – | – |
| Cc1c(C(=O)O)cc2ccc3c(c2c1-c1ccc2c(c1)OCO2)OCO3 [ZHU-X-10, sodium 5,6-methylenedioxy-4-(3',4'-methylenedioxyphenyl)-2-methylnapthalene-3-carbonate] | – | – | – | – | – | – | – | – | EC50 ([3]; read-out: Anti-viral activity (ED50) YFV, plaque reduction, BHK cells, 6 days, 8640 min): > 25 µM |
| O=C(O)c1cc2ccc3c(c2c(-c2ccc4c(c2)OCO4)c1CO)OCO3 [ZHU-IX-157, sodium 5,6-methylenedioxy-4-(3',4'-methylenedioxyphenyl)-3-hydroxymethylnapthalene-2-carbonate] | 2.5 | 255 | 8 | > 30 | 26 | 10 | – | – | activity against the Yellow fever virus ([3]; in words): demonstrated activity against the Yellow fever virus |
| Cc1cc2ccc3c(c2c(-c2ccc4c(c2)OCO4)c1C)OCO3 [ZHU-IX-163-2] | > 10 | 18.4 (≈ 5.89 µg/mL) | > 10 | – | 17 | > 10 | – | – | – |
| COc1cc2c(OC(C)=O)c3c(c(-c4ccc5c(c4)OCO5)c2cc1OC)C(=O)OC3 [Diphylline Acetate] | – | – | – | – | – | – | > 12.5 | > 12.5 | – |
| COc1cc2c(OC)c3c(c(-c4ccc5c(c4)OCO5)c2cc1OC)C(=O)OC3 [Justicidin A] | – | – | – | – | – | – | > 12.5 | > 12.5 | – |
| Cc1cc2ccc3c(c2c(-c2ccc4c(c2)OCO4)c1CO)OCO3 [ZHU-IX-159, 3-methyl-7,8-methylenedioxy-1-(3',4'-methylenedioxyphenyl)-2-hydroxymethylenaphtalene] | > 10 | 24.4 (≈ 8.21 µg/mL) | > 10 | – | 16 | 10 | – | – | – |
| O=C1OCc2c1c(-c1ccc3c(c1)OCO3)c1cc3c(cc1c2O)OCO3 [Taiwanin E] | – | – | – | – | – | – | > 12.5 | > 12.5 | – |
| Cc1c(CO)cc2ccc3c(c2c1-c1ccc2c(c1)OCO2)OCO3 [ZHU-IX-122-1, 3-methyl-5,6-methylenedioxy-4-(3',4'-methylenedioxyphenyl)-2-hydroxymethylnapthalene] | 5 | 52.9 (≈ 17.8 µg/mL) | > 10 | > 30 | > 30 | 10 | – | – | inhibition of HBV replication / DNA level [1]: inhibit HBV replication; HbsAg expression inhibition [6]: inhibit HBV replication and HbsAg expression |
| Cc1c(C(=O)O)cc2ccc3c(c2c1-c1ccc2c(c1)OCO2)OCO3 [ZHU-X-4] | > 10 | – | > 20 | – | – | > 10 | – | – | – |
| COc1cc(C2c3cc(OC(C)=O)c(OC)cc3CC3C(=O)OCC32)ccc1OC(C)=O (centres unmarked) [Conidendrin Diacetate] | – | – | – | – | – | – | > 12.5 | > 12.5 | – |
| Nc1ccn([C@H]2CC[C@@H](CO)O2)c(=O)n1 [2',3'-dideoxycytidine (ddC), 2',3'-dideoxycytidine] | – | – | – | – | – | – | – | – | toxicity [7]: high toxicity on the central and peripheral nervous system |
| O=C1OCc2c1cc1c(Br)cc3c(c1c2-c1cc2c(cc1Br)OCO2)OCO3 [ZHU-IX-143, 8,2'-dibromo-5,6-methylenedioxy-4-(4',5'-methylenedioxyphenyl)-3-hydroxymethylnapthalene-2-carboxylic acid lactone] | > 10 | 11.9 (≈ 6.02 µg/mL) | > 10 | > 30 | 20 | > 10 | – | – | – |
| O=C1OC(=O)c2c1cc1c(Br)cc3c(c1c2-c1cc2c(cc1Br)OCO2)OCO3 [ZHU-IX-120-1, 5-bromo-7,8-methylenedioxy-1-(2'-bromo-4',5'-methylenedioxyphenyl)napthalene-2,3-dicarboxylic acid anhydride] | > 10 | 13.8 (≈ 7.18 µg/mL) | > 10 | > 30 | 6 | > 10 | – | – | – |
